Results from patent US12252457B2, “Compositions and methods for reducing tactile dysfunction, anxiety, and social impairment” (President and Fellows of Harvard College, priority 2018, dated 2025).
Entries after “also recorded” stand apart in the source; their conditions may differ. Structures can show the parent of a compound that is named as a salt. Where two headings read alike, the source gives them in different places.

Biological target: T1, human GABA-A α2β3γ2 ion channels (Homo sapiens, UniProt P28472+P47869)
T1 construct: expressed in transfected cells
T1 sequence (P47869 29-451): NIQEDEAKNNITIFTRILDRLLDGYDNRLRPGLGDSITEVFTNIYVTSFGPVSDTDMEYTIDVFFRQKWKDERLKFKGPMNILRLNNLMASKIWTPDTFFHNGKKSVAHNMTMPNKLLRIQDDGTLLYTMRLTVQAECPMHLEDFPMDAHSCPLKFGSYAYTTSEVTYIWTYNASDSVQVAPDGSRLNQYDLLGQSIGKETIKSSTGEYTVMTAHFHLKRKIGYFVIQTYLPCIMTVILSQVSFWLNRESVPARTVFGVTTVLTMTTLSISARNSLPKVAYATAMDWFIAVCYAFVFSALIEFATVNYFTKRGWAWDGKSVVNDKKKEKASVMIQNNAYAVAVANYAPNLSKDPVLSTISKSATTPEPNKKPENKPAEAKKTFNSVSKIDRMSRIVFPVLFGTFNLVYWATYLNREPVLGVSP
T1 sequence (P28472 26-473): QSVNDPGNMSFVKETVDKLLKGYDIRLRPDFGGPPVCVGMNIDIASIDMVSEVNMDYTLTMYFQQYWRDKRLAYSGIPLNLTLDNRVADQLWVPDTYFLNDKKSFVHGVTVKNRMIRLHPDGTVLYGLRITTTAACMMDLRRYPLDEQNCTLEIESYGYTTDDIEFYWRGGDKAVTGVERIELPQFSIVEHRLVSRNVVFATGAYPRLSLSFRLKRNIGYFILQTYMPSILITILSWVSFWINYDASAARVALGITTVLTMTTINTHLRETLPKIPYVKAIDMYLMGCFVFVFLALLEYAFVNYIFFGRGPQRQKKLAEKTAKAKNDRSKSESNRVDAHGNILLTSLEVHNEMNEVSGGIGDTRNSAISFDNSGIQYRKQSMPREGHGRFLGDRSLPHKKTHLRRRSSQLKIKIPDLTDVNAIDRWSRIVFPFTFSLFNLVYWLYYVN
T1 sequence (P18507 40-467 partner limits assumed): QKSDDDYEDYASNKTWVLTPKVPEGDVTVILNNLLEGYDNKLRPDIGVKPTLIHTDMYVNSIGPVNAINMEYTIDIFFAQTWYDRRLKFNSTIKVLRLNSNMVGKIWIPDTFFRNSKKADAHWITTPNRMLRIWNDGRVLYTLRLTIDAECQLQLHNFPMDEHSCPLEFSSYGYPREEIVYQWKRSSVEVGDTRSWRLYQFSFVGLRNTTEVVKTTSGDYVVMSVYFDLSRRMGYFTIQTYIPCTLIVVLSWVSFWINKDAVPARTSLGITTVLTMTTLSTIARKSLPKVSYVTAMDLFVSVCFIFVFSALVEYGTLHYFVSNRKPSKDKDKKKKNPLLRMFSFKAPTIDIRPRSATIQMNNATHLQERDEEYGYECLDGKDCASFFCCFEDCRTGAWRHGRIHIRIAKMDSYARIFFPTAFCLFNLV
Assay: Human GABA-A receptor IonFlux HT agonist assay (Cl-flux), α2β3γ2
Format: cell-based
Settings: for Normalized Percentage Activation, Mean: hGABAA α2β3γ2
Text: (FIG. 12A) Six additions of 0.33% DMSO for 2 seconds were introduced to the cells to act as a time matched vehicle control for the agonist. (FIG. 12B) Note: The test compound was applied over two ‘experimental patterns’ in increasing concentrations. […] Time-matched negative and reference compound data are included for comparison.
[…] Aliquots were taken out and diluted 300× into external buffer to give the final assay concentration. All wells included a final DMSO concentration of 0.33% including all control wells.
All recordings were obtained from a holding potential of −60 mV. The compound addition sequence that was used for all additions was the same for all assays. […] Each test concentration of compound was applied for 2 seconds followed by 30 seconds wash. The process was repeated with the next ascending concentration of test compound up to a maximum of six concentrations per well (FIG. 14).
Peak inward currents in response to the additions of compound were measured. […] All data were first exported to an Excel compatible data file and then analyzed using Graph Pad Prism software.

Row | EC50 (GABAA receptor chloride flux assay, read-out: Estimated EC50 (μM), activation of α2β3γ2-containing GABAA receptors) [µM] | SMILES | Normalized Percentage Activation, Mean (0.3 μM) [%] | Normalized Percentage Activation, Mean (1 μM) [%] | Normalized Percentage Activation, Mean (3 μM) [%] | Normalized Percentage Activation, Mean (10 μM) [%] | Normalized Percentage Activation, Mean (30 μM) [%] | Normalized Percentage Activation, Mean (100 μM) [%] | Normalized Percentage Activation, Mean (300 μM) [%] | Normalized Percentage Activation, Mean (1000 μM) [%] | EC50 [µM] | agonism of α2β3γ2-containing GABAA receptor (in words) (hydrochloride)
1 | 18.7 | O=C(O)C1=CCNCC1 [Isoguvacine, isoguvacine] | 2.09 | 4.69 | 10.43 | 32.71 | 63.48 | 85.91 | 99.01 | 100.05 |  | 
2 |  | NC1C=C(C(=O)O)CCC1 (stereo not shown) [Compound 5, 3-aminocyclohex-1-enecarboxylic acid hydrochloride] | 1.42 | 1.28 | 1.23 | 1.56 | 1.48 | 1.96 | 1.77 | 1.64 | > 1000 | not an agonist; also recorded: no agonism
